Measurements from patent US10624892B2, “Agent against fungal infections” (priority 2015, dated 2020).

Key:
[1] = cited from earlier work
[2] = system: Candida albicans; test: Candidamycosis of mammals: intradermal Candida albicans ulceration in rabbits, topical treatment; assay type: in vivo; conditions: for Complete cure by day 7: scarring of the lesion by day 7, 0.1% oil (olive oil) solution applied twice a day for 7 days
Protocol: Rabbits were inoculated intradermally with a suspension of a 48-hour Candida albicans culture at a dose of 10,000 fungal cells in […] of a 0.9% sodium chloride solution. […] For the study, a 0.1% oil (olive oil) solution of the 5-[3,5-dichloro-2-hydroxybenzylidene)amino]-4-hydroxy-1H-pyrimidin-2-one salt associate with 1,2,3,4,5-pentahydroxy-6-methylaminohexane and substance I-3 were prepared. Sterile water was used as the control substance. The duration of treatment was 7 days, starting from the 1st day after ulceration. The preparations were applied with a cotton swab twice a day—in the morning and in the evening. The criterion for mycological cure was the absence of the yeast and mycelial forms of Candida, and the criterion for complete cure was the scarring of the lesion by day 7.

[3] = system: Aspergillus niger; test: Aspergillus pneumonia in immunodeficient mice, aerosol treatment, microbial contamination of the lungs; assay type: in vivo, white mongrel mice; conditions: for Number of colonies (in different dilutions), 10^−2: dilution 10^−2, Saburo medium
Protocol: The studies were conducted on white mongrel mice (females, 6-8 weeks) in Rappolovo (Leningrad region), the quarantine period was 2 weeks. To reproduce aspergillus pneumonia of the mouse, in order to create an immunodeficiency, a cyclophosphamide solution (150 mg/kg) was injected once intraperitoneally. Three days later, the mice were injected hydrocortisone (250 mg/kg), intraperitoneally, once. One day after the hydrocortisone administration the mice were infected with a suspension of Aspergillus niger (approximately 3×10^7 cell/ml) intranasally, under ether anesthesia. On the 5th day after infection, 5 animals from each group were taken to study microbial contamination of the lungs (euthanasia in rodents was performed with an overdose of ether). From the lung tissue, homogenates were prepared in which the titer of Aspergillus genus fungi was determined. Observation over the remaining mice was carried out within 14 days after infection for mortality accounting. The test solutions were injected in an aerosol chamber. In the course of the experiment, the following groups of animals were formed: • 1—spray control (K), 3 identical groups (K1, K2, K3). The animals infected with Aspergillus and receiving an aerosol of isotonic sodium chloride solution. • 2—The associate of 5-[3,5-dichloro-2-hydroxybenzylidene)amino]-4-hydroxy-1H-pyrimidin-2-one salt with 1,2,3,4,5-pentahydroxy-6-methylaminohexane, 3 identical groups (E1-3). The animals infected with Aspergillus and receiving an aerosol of 0.1% of the preparation under study. • 3. Aqueous solution of substance I-1 • 4. Aqueous solution of substance I-2 • 5. Aqueous solution of substance I-3 • 6. Aqueous solution of substance I-4 • 7. Aqueous solution of substance I-5 • 8. Aqueous solution of substance I-6 • 9. Aqueous solution of substance I-7. The animals were placed into aerosol chambers (12 l) for a period of 30 minutes, during which 500 ml of air passed through the lungs. As an aerosol generator, an ultrasonic nebulizer OMRON U1 (Japan) was used. To maintain a constant concentration of the aerosol of the preparation in the chamber, a vortex pneumatic generator in pulsed spraying mode was used to obtain a stable aerosol with a particle size of 3 m. The animals were placed into immobilization containers and exposed to the obtained aerosol for 30 minutes once a day for 3 days, starting from the first day after the infection. From the samples of homogenized lung tissues, a number of successive dilutions were prepared, followed by seeding on to Saburo medium.

[4] = system: Leveillula taurica; test: Treatment of powdery mildew on begonia tuberosa by spray; assay type: in vivo, Begonia tuberosa hybridum
Protocol: The study was carried out on begonia tuberosa (Begonia tuberosa hybridum), infected with powdery mildew. Powdery mildew affects many plants, including trees and shrubs. Powdery mildew affects chrysanthemums, begonias, and roses; it is manifested in appearance of a white, sometimes darkening spew on green parts of plants. The plant disease is transmitted by spores through the air. The test plants were infected with spores of the fungus (Leveillula taurica) and kept until a white spew appeared on the leaves. Three leaves on each plant were infected. After appearance of the spew, the plants of the control group (3 plants) were isolated from the 3 plants treated with a spray, which is an aqueous solution of substance I-3. The treatment was performed once in a day for 3 and 7 days. After completion of the treatment, the observation over the plants was continued for another 3 weeks. During the observation, an increase in the amount of spew representing the fungal mycelium was registered in the control plants and the number of affected leaves increased, on average, to 7-8, while the spew covered the stems of the plants as well.

[5] = lung homogenate, 5th day after infection, aerosol 30 minutes once a day for 3 days

Structure (SMILES)	solubility in oil solutions ([1]; oil solutions)	solubility in water ([1]; water) [%]	Complete cure by day 7 [2]	Number of colonies (in different dilutions), 10^−2 [3, 5] [col]	Number of colonies (in different dilutions), 10^−4 ([3]; lung homogenate, 5th day after infection, dilution 10^−4, Saburo medium, aerosol 30 minutes once a day for 3 days) [col]	Presence of mycelium of fungi in the smear, 5 day ([2]; 5 day, 0.1% oil (olive oil) solution applied twice a day)	overall effect of treatment ([2]; conclusion from Table 3)	increase or spread of the fungus to other parts of the plant ([4]; aqueous solution spray once in a day for 3 and 7 days, observation for another 3 weeks)	growth of the fungi when flushed from the leaf and plated on a nutrient medium ([4]; flush from treated leaf, nutrient medium)	overall antifungal effectiveness among tested agents ([3]; conclusion from Table 2)
CNCC(O)C(O)C(O)C(O)CO.O=c1nc(O)c(N=Cc2cc(Cl)cc(Cl)c2O)c[nH]1 [associate of 5-[3,5-dichloro-2-hydroxybenzylidene)amino]-4-hydroxy-1H-pyrimidin-2-one salt with 1,2,3,4,5-pentahydroxy-6-methylaminohexane, reference compound]	up to 0.3%	≤ 0.4	Absent	12	2	–	–	–	–	–
Cc1[nH]c(=O)[nH]c(=O)c1N=Cc1cc(Cl)cc(Cl)c1O.[Na] [Substance I-3, 2,4-dioxo-5-(2-hydroxy-3,5-dichlorobenzylidene) amino-6-methyl-1,3-pyrimidine sodium salt]	–	–	Achieved	2	–	no growth	positive effect is achieved	no increase or spread of the fungus to other parts of the plant was recorded	no growth of the fungi was recorded	most effective antifungal agent
Cc1[nH]c(=O)[nH]c(=O)c1N=Cc1ccc([N+](=O)[O-])cc1.[Na] [Substance I-1, 2,4-dioxo-5-(4-nitrobenzylidene)amino-6-methyl-1,3-pyrimidine sodium salt]	–	–	–	5	–	–	–	–	–	–
